The values below come from publication PMC10398685 (ACS Omega, 2023).

What is called IC50 is the midpoint of a concentration-inhibition curve. What is called EC50 is the midpoint of the concentration-response curve.

Where two headings read alike, the source gives them in different places.

Data set [1] has as its target SARS-CoV-2 nsp14 7-N MTase (Severe acute respiratory syndrome coronavirus 2, UniProt P0DTD1). As to the kind of experiment: biochemical. The note with it: Echo MS assay, 20 nM nsp14, 4 μM SAM, 4 μM GpppA, duplicates.
Data set [2] relates to SARS-CoV-2. As to the kind of experiment: microbe, parasite or virus in culture. The conditions noted are these: Severe acute respiratory syndrome coronavirus 2, 72 h; Calu-3 cells, MOI~0.03, 3 days incubation, CPE by XTT; read-out: EC50 (anti-SARS-CoV-2 activity). Format: cell-based. In general terms: Formazan colour is commonly taken as a measure of viable cells.
Data set [3] concerns SARS-CoV-2. Nature of the data set: microbe, parasite or virus in culture. The class given is cell-based. The conditions noted are these: Severe acute respiratory syndrome coronavirus 2, Vero C1008, 72 h; VeroE6 cells, MOI~0.03, 3 days incubation, CPE by XTT; read-out: EC50 (anti-SARS-CoV-2 activity).
Data set [4] in a line: in vitro. The note with it: human.
The nature of data set [5]: in vitro. The note with it: African green monkey.
For data set [6] the following is noted: in the same cell type; cited from earlier work.
Data set [7] in a line: Cytotoxicity (XTT) in Calu-3 cells. The note with it: human.
Data set [8] is described as follows: Cytotoxicity (XTT) in Vero E6 cells. The conditions noted are these: African green monkey.

Turning to `CCN(C[C@H]1O[C@@H](n2cc(C#Cc3cnc(N)nc3)c3c(N)ncnc32)[C@H](O)[C@@H]1O)S(=O)(=O)c1ccc(OC)c(C#N)c1` [Compound 12i], 0.038 ± 0.0042 µM corresponded to half-maximal inhibition in data set [1] (IC50). The EC50 in data set [2] and in data set [3] was over 100 µM each time. Also, the CC50 at 3 days in data set [4] and in data set [5] was over 100 µM in each case.
As for `CCN(C[C@H]1O[C@@H](n2cc(C#Cc3c[nH]c(=O)[nH]c3=O)c3c(N)ncnc32)[C@H](O)[C@@H]1O)S(=O)(=O)c1ccc(OC)c(C#N)c1` [Compound 12j], in data set [1], it took 0.07 ± 0.0081 µM to reach half-maximal inhibition (IC50). Further, the EC50 in data set [2] and in data set [3] was over 100 µM each time. In addition, the CC50 at 3 days in data set [4] and in data set [5] was over 100 µM throughout.
`COc1ccc(S(=O)(=O)N(C[C@H]2O[C@@H](n3cnc4c(N)ncnc43)[C@H](O)[C@@H]2O)C(C)C)cc1C#N` [Compound 3c]: in data set [1], the IC50 turned out to be 0.624 ± 0.0891 µM.
Regarding `CCN(C[C@H]1O[C@@H](n2cc(C#Cc3ncc[nH]3)c3c(N)ncnc32)[C@H](O)[C@@H]1O)S(=O)(=O)c1ccc(OC)c(C#N)c1` [Compound 12b], in data set [1], the IC50 is 0.034 ± 0.0049 µM. For the same compound, the EC50 in data set [2] and in data set [3] was over 100 µM throughout. Further, the CC50 at 3 days in data set [4] and in data set [5] was over 100 µM throughout.
`CCN(C[C@H]1O[C@@H](n2cc(C#Cc3ccccc3)c3c(N)ncnc32)[C@H](O)[C@@H]1O)S(=O)(=O)c1ccc(OC)c(C#N)c1` [Compound 12c] displayed an IC50 in data set [1] of 0.062 ± 0.0124 µM. The EC50 in data set [2] and in data set [3] was over 100 µM each time. Besides, the CC50 at 3 days in data set [4] and in data set [5] was over 100 µM each time.
In data set [1], `CCN(C[C@H]1O[C@@H](n2cc(C#Cc3ccc(O)nc3)c3c(N)ncnc32)[C@H](O)[C@@H]1O)S(=O)(=O)c1ccc(OC)c(C#N)c1` [Compound 12f] yielded an IC50 of 0.065 ± 0.0092 µM. In addition, the EC50 in data set [2] and in data set [3] was over 100 µM each time. Besides, the CC50 at 3 days in data set [4] and in data set [5] was over 100 µM throughout.
In the case of `CCN(C[C@H]1O[C@@H](n2cc(C#Cc3ccncc3)c3c(N)ncnc32)[C@H](O)[C@@H]1O)S(=O)(=O)c1ccc(OC)c(C#N)c1` [Compound 12n], the IC50 in data set [1] worked out at 0.041 ± 0.0071 µM. Besides, the EC50 in data set [2] and in data set [3] was over 100 µM in each case. Also, the CC50 at 3 days in data set [4] and in data set [5] was over 100 µM each time.
The compound `CCN(C[C@H]1O[C@@H](n2cc(C#Cc3cccc4ccccc34)c3c(N)ncnc32)[C@H](O)[C@@H]1O)S(=O)(=O)c1ccc(OC)c(C#N)c1` [Compound 12d] yielded an IC50 in data set [1] of 0.261 ± 0.0516 µM. Moreover, the EC50 in data set [2] and in data set [3] was over 100 µM in each case. In addition, the CC50 at 3 days in data set [4] and in data set [5] was over 100 µM each time.
As for `CCN(C[C@H]1O[C@@H](n2cc(C#Cc3c[nH]c(=O)nc3N)c3c(N)ncnc32)[C@H](O)[C@@H]1O)S(=O)(=O)c1ccc(OC)c(C#N)c1` [Compound 12k], in data set [1], the IC50 amounted to 0.088 ± 0.0112 µM. Besides, the EC50 in data set [2] and in data set [3] was over 100 µM in each case. Besides, the CC50 at 3 days in data set [4] and in data set [5] was over 100 µM in each case.
Take `CC(C)OC(=O)[C@H](C)N[P@](=O)(CO[C@H](C)Cn1cnc2c(N)ncnc21)Oc1ccccc1` [tenofovir alafenamide]: in data set [6], the “Reported intracellular uptake, free tenofovir” value was 67 µM and the “Reported intracellular uptake, prodrug” value was 0.9 µM.
In turn, `CCN(C[C@H]1O[C@@H](n2cc(C#Cc3ccc(C(=O)O)cc3)c3c(N)ncnc32)[C@H](O)[C@@H]1O)S(=O)(=O)c1ccc(OC)c(C#N)c1` [Compound 12p] displayed an IC50 in data set [1] of 0.084 ± 0.0094 µM. For the same compound, the EC50 in data set [2] and in data set [3] was over 100 µM in each case. Also, the CC50 at 3 days in data set [4] and in data set [5] was over 100 µM in each case.
As for `CCN(C[C@H]1O[C@@H](n2cnc3c(N)ncnc32)[C@H](O)[C@@H]1O)S(=O)(=O)c1ccc(OC)c(C#N)c1` [Compound 3a, reference compound], the IC50 in data set [1] was 0.195 ± 0.0253 µM. Besides, the EC50 in data set [2] and in data set [3] was over 100 µM in each case. Also, the CC50 at 3 days in data set [4] and in data set [5] was over 100 µM throughout.
With `CCC(CC)COC(=O)[C@H](C)N[P@](=O)(OC[C@H]1O[C@@](C#N)(c2ccc3c(N)ncnn23)[C@H](O)[C@@H]1O)Oc1ccccc1` [Remdesivir, reference compound], the EC50 worked out at 0.26 µM in data set [2] and 1.2 µM in data set [3]. Further, the CC50 at 3 days in data set [7] and in data set [8] was over 50 µM each time.
Turning to `COc1ccc(S(=O)(=O)N(C)C[C@H]2O[C@@H](n3cnc4c(N)ncnc43)[C@H](O)[C@@H]2O)cc1C#N` [Compound 3b], in data set [1], the IC50 is 0.128 ± 0.0144 µM.
`Nc1ncnc2c1c(C#Cc1cnc3ccccc3c1)cn2[C@@H]1O[C@H](CSCC[C@H](N)C(=O)O)[C@@H](O)[C@H]1O` [TO507, reference compound] had an IC50 in data set [1] of 0.068 ± 0.0121 µM. In addition, the EC50 in data set [2] and in data set [3] was over 100 µM each time. Moreover, the CC50 at 3 days in data set [4] and in data set [5] was over 100 µM each time.
In data set [1], `CCN(C[C@H]1O[C@@H](n2cc(C#Cc3cnc(O)nc3)c3c(N)ncnc32)[C@H](O)[C@@H]1O)S(=O)(=O)c1ccc(OC)c(C#N)c1` [Compound 12g] gave an IC50 of 0.075 ± 0.0083 µM. In addition, the EC50 in data set [2] and in data set [3] was over 100 µM each time. The CC50 at 3 days in data set [4] and in data set [5] was over 100 µM each time.
`CCN(C[C@H]1O[C@@H](n2cc(C#Cc3cncnc3)c3c(N)ncnc32)[C@H](O)[C@@H]1O)S(=O)(=O)c1ccc(OC)c(C#N)c1` [Compound 12m] displayed an IC50 in data set [1] of 0.051 ± 0.0062 µM. Further, the EC50 in data set [2] and in data set [3] was over 100 µM throughout. Besides, the CC50 at 3 days in data set [4] and in data set [5] was over 100 µM throughout.
In data set [1], `COc1ccc(S(=O)(=O)N(C[C@H]2O[C@@H](n3cnc4c(N)ncnc43)[C@H](O)[C@@H]2O)C2CCCC2)cc1C#N` [Compound 3d] returned an IC50 of 2.38 ± 0.278 µM.
